Data: patent US8329717B2, “Pyrimidine derivatives and their use for controlling undesired plant growth” (Bayer Cropscience AG, priority 2008, dated 2012)

Legend:
PHBPU = test: Post-emergence herbicidal effect; type: in vivo; details: Dosage 320 g/ha, one-leaf stage, visual scoring after ca. 3 weeks vs untreated controls, 100% = plants have died
Method: 2. Post-Emergence Herbicidal Effect and Crop Plant Compatibility Seeds of monocotyledonous or dicotyledonous weed plants or crop plants are planted in wood-fiber pots in sandy loam, covered with earth and grown in a greenhouse under good growth conditions. 2 to 3 weeks after sowing, the test plants are treated in the one-leaf stage. The compounds according to the invention, formulated in the form of wettable powders (WP) or as emulsion concentrates (EC), are then sprayed onto the green plant parts as aqueous suspension or emulsion at a water application rate of 600 to 800 l/ha (converted) with the addition of 0.2% of wetting agent. The dosage of the compounds according to the invention is given in grams per hectare. After ca. 3 weeks' standing time of the test plants in the greenhouse under optimum growth conditions, the effect of the preparations is scored visually in comparison with untreated controls (herbicidal effect in percent (%): 100% effect=plants have died, 0% effect=as control plants).

Veronica persica [1] = test: Post-emergence herbicidal effect; type: in vivo; details: Dosage 320 g/ha, one-leaf stage, visual scoring after ca. 3 weeks vs untreated controls, 100% = plants have died
How it was run: (§1)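 Seeds are sown in sandy loam and raised in a greenhouse. When seedlings reach one leaf, two to three weeks on, green parts are sprayed with the wettable-powder or emulsion-concentrate formulation at a stated grams-per-hectare dose. After roughly three weeks, injury is rated by eye as percent effect against controls.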

Echinochloa crus-galli [2] = test: Post-emergence herbicidal effect; type: in vivo; details: Dosage 320 g/ha, one-leaf stage, visual scoring after ca. 3 weeks vs untreated controls, 100% = plants have died
How it was run: as §1

Lolium multiflorum [3] = test: Post-emergence herbicidal effect; type: in vivo; details: Dosage 320 g/ha, one-leaf stage, visual scoring after ca. 3 weeks vs untreated controls, 100% = plants have died
How it was run: as §1

Alopecurus myosuroides [4] = test: Post-emergence herbicidal effect; type: in vivo; details: Dosage 320 g/ha, one-leaf stage, visual scoring after ca. 3 weeks vs untreated controls, 100% = plants have died
How it was run: as §1

Avena fatua [5] = test: Post-emergence herbicidal effect; type: in vivo; details: Dosage 320 g/ha, one-leaf stage, visual scoring after ca. 3 weeks vs untreated controls, 100% = plants have died
How it was run: as §1

Stellaria media [6] = test: Post-emergence herbicidal effect; type: in vivo; details: Dosage 320 g/ha, one-leaf stage, visual scoring after ca. 3 weeks vs untreated controls, 100% = plants have died
How it was run: as §1

Setaria viridis [7] = test: Post-emergence herbicidal effect; type: in vivo; details: Dosage 320 g/ha, one-leaf stage, visual scoring after ca. 3 weeks vs untreated controls, 100% = plants have died
How it was run: as §1

Amaranthus retroflexus [8] = test: Post-emergence herbicidal effect; type: in vivo; details: Dosage 320 g/ha, one-leaf stage, visual scoring after ca. 3 weeks vs untreated controls, 100% = plants have died
How it was run: as §1

[9] = logp (HCOOH), chemicophysical data
Veronica persica [10] = test: Pre-emergence herbicidal effect; type: in vivo; details: Dosage 320 g/ha, visual scoring after 3 weeks vs untreated controls, 100% = plants have died
How it was run: (§2)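 Seeds sown in sandy loam and covered with soil; compound (WP or EC formulation) sprayed onto soil surface as aqueous suspension/emulsion at 600 to 800 l/ha water with 0.2% wetting agent, dose in g/ha. Greenhouse; visual damage scored after 3 weeks versus untreated controls (0% = control, 100% = dead).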

Echinochloa crus-galli [11] = test: Pre-emergence herbicidal effect; type: in vivo; details: Dosage 320 g/ha, visual scoring after 3 weeks vs untreated controls, 100% = plants have died
How it was run: as §2

Lolium multiflorum [12] = test: Pre-emergence herbicidal effect; type: in vivo; details: Dosage 320 g/ha, visual scoring after 3 weeks vs untreated controls, 100% = plants have died
How it was run: as §2

Alopecurus myosuroides [13] = test: Pre-emergence herbicidal effect; type: in vivo; details: Dosage 320 g/ha, visual scoring after 3 weeks vs untreated controls, 100% = plants have died
How it was run: as §2

Polygonum convolvulus [14] = test: Pre-emergence herbicidal effect; type: in vivo; details: Dosage 320 g/ha, visual scoring after 3 weeks vs untreated controls, 100% = plants have died
How it was run: as §2

Matricaria inodora [15] = test: Pre-emergence herbicidal effect; type: in vivo; details: Dosage 320 g/ha, visual scoring after 3 weeks vs untreated controls, 100% = plants have died
How it was run: as §2

Avena fatua [16] = test: Pre-emergence herbicidal effect; type: in vivo; details: Dosage 320 g/ha, visual scoring after 3 weeks vs untreated controls, 100% = plants have died
How it was run: as §2

Stellaria media [17] = test: Pre-emergence herbicidal effect; type: in vivo; details: Dosage 320 g/ha, visual scoring after 3 weeks vs untreated controls, 100% = plants have died
How it was run: as §2

Setaria viridis [18] = test: Pre-emergence herbicidal effect; type: in vivo; details: Dosage 320 g/ha, visual scoring after 3 weeks vs untreated controls, 100% = plants have died
How it was run: as §2

Cyperus esculentus = test: Pre-emergence herbicidal effect; type: in vivo; details: Dosage 320 g/ha, visual scoring after 3 weeks vs untreated controls, 100% = plants have died
How it was run: as §2

Viola tricolor [19] = test: Pre-emergence herbicidal effect; type: in vivo; details: Dosage 320 g/ha, visual scoring after 3 weeks vs untreated controls, 100% = plants have died
How it was run: as §2

Amaranthus retroflexus [20] = test: Pre-emergence herbicidal effect; type: in vivo; details: Dosage 320 g/ha, visual scoring after 3 weeks vs untreated controls, 100% = plants have died
How it was run: as §2

Abutilon theophrasti [21] = test: Post-emergence herbicidal effect; type: in vivo; details: Dosage 320 g/ha, one-leaf stage, visual scoring after ca. 3 weeks vs untreated controls, 100% = plants have died
How it was run: as §1

Polygonum convolvulus [22] = test: Post-emergence herbicidal effect; type: in vivo; details: Dosage 320 g/ha, one-leaf stage, visual scoring after ca. 3 weeks vs untreated controls, 100% = plants have died
How it was run: as §1

Matricaria inodora [23] = test: Post-emergence herbicidal effect; type: in vivo; details: Dosage 320 g/ha, one-leaf stage, visual scoring after ca. 3 weeks vs untreated controls, 100% = plants have died
How it was run: as §1

Viola tricolor [24] = test: Post-emergence herbicidal effect; type: in vivo; details: Dosage 320 g/ha, one-leaf stage, visual scoring after ca. 3 weeks vs untreated controls, 100% = plants have died
How it was run: as §1

Abutilon theophrasti [25] = test: Pre-emergence herbicidal effect; type: in vivo; details: Dosage 320 g/ha, visual scoring after 3 weeks vs untreated controls, 100% = plants have died
How it was run: as §2

| Compound | Post-emergence herbicidal effect PHBPU (PHBPU) | Post-emergence herbicidal effect VERPE (Veronica persica [1]) | Post-emergence herbicidal effect ECHCG (Echinochloa crus-galli [2]) | Post-emergence herbicidal effect LOLMU (Lolium multiflorum [3]) | Post-emergence herbicidal effect ALOMY (Alopecurus myosuroides [4]) | Post-emergence herbicidal effect AVEFA (Avena fatua [5]) | Post-emergence herbicidal effect STEME (Stellaria media [6]) | Post-emergence herbicidal effect SETVI (Setaria viridis [7]) | Post-emergence herbicidal effect AMARE (Amaranthus retroflexus [8]) | Pre-emergence herbicidal effect VERPE (Veronica persica [10]) | Pre-emergence herbicidal effect ECHCG (Echinochloa crus-galli [11]) | Pre-emergence herbicidal effect LOLMU (Lolium multiflorum [12]) | Pre-emergence herbicidal effect ALOMY (Alopecurus myosuroides [13]) | Pre-emergence herbicidal effect POLCO (Polygonum convolvulus [14]) | Pre-emergence herbicidal effect MATIN (Matricaria inodora [15]) | Pre-emergence herbicidal effect AVEFA (Avena fatua [16]) | Pre-emergence herbicidal effect STEME (Stellaria media [17]) | Pre-emergence herbicidal effect SETVI (Setaria viridis [18]) | Pre-emergence herbicidal effect VIOTR (Viola tricolor [19]) | Pre-emergence herbicidal effect AMARE (Amaranthus retroflexus [20]) | also measured |
| --- | --- | --- | --- | --- | --- | --- | --- | --- | --- | --- | --- | --- | --- | --- | --- | --- | --- | --- | --- | --- | --- |
| Cc1ccc2c(c1)[C@H](Nc1ncc(F)c(N)n1)[C@@H](C)C2 [Example 1.56] | 90% | 90% | 90% | 93% | 85% | 80% | 80% | 80% | 80% | 100% | 100% | 100% | 100% | 95% | 100% | 100% | 100% | 100% | 100% | 100% | logp (HCOOH) ([9]; HCOOH): wax-like; logp (HCOOH): 1.20; 1H-NMR (CDCl3, 400 MHZ, δ in ppm): 1.25 (d, 3H, CH3);; Pre-emergence herbicidal effect CYPES (Cyperus esculentus): 80% |
| Cc1ccc2c(c1)[C@H](Nc1ncc(Br)c(N)n1)[C@@H](C)C2 [Example 1.67, 5-Bromo-N2-[(1R,2S)-2,6-dimethyl-2,3-dihydro-1H-inden-1-yl]pyrimidine-2,4-diamine] | 93% | 85% | 95% | 87% | 85% |  | 90% | 87% | 90% | 100% | 100% | 95% | 95% | 100% | 100% | 80% | 100% | 100% | 100% | 100% | Post-emergence herbicidal effect ABUTH (Abutilon theophrasti [21]): 90%; Post-emergence herbicidal effect POLCO (Polygonum convolvulus [22]): 85%; Post-emergence herbicidal effect MATIN (Matricaria inodora [23]): 80%; Post-emergence herbicidal effect VIOTR (Viola tricolor [24]): 80%; chromatographic logP ([9]; HCOOH (formic acid)): 1.3; Pre-emergence herbicidal effect ABUTH (Abutilon theophrasti [25]): 90% |
| CC[C@H]1Cc2ccccc2[C@@H]1Nc1ncc(C#N)c(N)n1 [Example 1.129] |  | 90% | 100% | 90% | 90% | 80% | 90% | 90% | 90% | 100% | 100% | 100% | 100% | 100% | 100% | 90% | 100% | 100% | 100% | 100% | Post-emergence herbicidal effect ABUTH (Abutilon theophrasti [21]): 90%; Post-emergence herbicidal effect POLCO (Polygonum convolvulus [22]): 90%; Post-emergence herbicidal effect VIOTR (Viola tricolor [24]): 80%; Pre-emergence herbicidal effect ABUTH (Abutilon theophrasti [25]): 80%; Pre-emergence herbicidal effect CYPES (Cyperus esculentus): 80% |
